Experimental findings from ChEMBL document CHEMBL2073942, “Localization of organic anion transport protein 2 in the apical region of rat retinal pigment epithelium” (Invest Ophthalmol Vis Sci, 2002) are described below.

The test concerns the target T1, Solute carrier organic anion transporter family member 1A4 (Rattus norvegicus, UniProt O35913).
T1 sequence (O35913 whole entry): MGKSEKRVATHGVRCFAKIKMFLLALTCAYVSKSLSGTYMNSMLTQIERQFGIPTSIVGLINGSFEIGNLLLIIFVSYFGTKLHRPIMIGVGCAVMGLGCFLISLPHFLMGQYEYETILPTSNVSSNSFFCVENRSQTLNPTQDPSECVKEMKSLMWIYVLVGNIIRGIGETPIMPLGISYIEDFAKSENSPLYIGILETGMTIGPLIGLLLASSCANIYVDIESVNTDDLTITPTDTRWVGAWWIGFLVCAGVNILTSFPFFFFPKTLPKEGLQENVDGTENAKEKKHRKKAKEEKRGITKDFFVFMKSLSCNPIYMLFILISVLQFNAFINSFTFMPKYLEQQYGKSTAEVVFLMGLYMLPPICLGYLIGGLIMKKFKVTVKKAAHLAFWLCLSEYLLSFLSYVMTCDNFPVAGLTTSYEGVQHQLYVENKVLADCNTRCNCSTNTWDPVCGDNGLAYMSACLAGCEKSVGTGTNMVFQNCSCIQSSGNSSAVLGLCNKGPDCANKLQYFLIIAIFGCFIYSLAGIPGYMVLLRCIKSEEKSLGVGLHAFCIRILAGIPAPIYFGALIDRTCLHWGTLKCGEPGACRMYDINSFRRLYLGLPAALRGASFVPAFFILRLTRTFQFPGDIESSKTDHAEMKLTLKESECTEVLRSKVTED
Kind of test: TP_TRANSPORTER: inhibition of Digoxin uptake in Xenopus laevis oocytes. It counts as functional, cell-based, Oocyte.

On to `CC1=C(/C=C/C(C)=C/C=C/C(C)=C/c2cc(/C=C/C=C(C)/C=C/C3=C(C)CCCC3(C)C)cc[n+]2CCO)C(C)(C)CCC1`, for which affinity was put at a Ki of 37 µM.

Usually Ki stands for the dissociation constant of the complex between target and ligand, obtained from inhibition or displacement. A low value points to tighter binding.
